Literature values, collected in patent publication US20090005367A1, “COMPOSITION AND METHOD FOR TREATING ALCOHOLISM AND OTHER SUBSTANCE ADDICTIONS” (priority 2006, published 2009).
Read-outs that look alike come from different tables or passages of the source.

Legend:
[1] = not given; remark: listed apart in the source
[2] = not given; remark: listed apart in the source
[3] = oral / gastrointestinal tract
[4] = system: aldehyde dehydrogenase; conditions: blood, after alcohol ingestion

Structure (SMILES)	Elimination Half-Life (parent drug) [h]	other results
Cc1nnc2n1-c1ccc(Cl)cc1C(c1ccccc1)=NC2 [Alprazolam]	6 to 12	
CN1[C@@H]2CC[C@H]1C[C@@H](OC(=O)C(CO)c1ccccc1)C2 (stereo partly shown) [Atropine]		excreted in the urine as unchanged drug [1]: 30-50%
O=C1CN=C(c2ccccn2)c2cc(Br)ccc2N1 [Bromazepam]	10 to 20	
CNC1=Nc2ccc(Cl)cc2C(c2ccccc2)=[N+]([O-])C1 [Chlordiazepoxide]	5 to 30	
N#CCCN1C(=O)C(O)N=C(c2ccccc2F)c2cc(Cl)ccc21 (stereo not shown) [Cinolazepam]	9	
CN1C(=O)CC(=O)N(c2ccccc2)c2cc(Cl)ccc21 [Clobazam]	12 to 60	
O=C1CN=C(c2ccccc2Cl)c2cc([N+](=O)[O-])ccc2N1 [Clonazepam]	18 to 50	time until full effects occur after ingestion [2]: 1 to 4 h; duration of action ([2]; in vivo): 30 to 40 h; Elimination Half-Life: 30 to 40 h; absorption [3]: rapidly and completely absorbed
CCN(CC)C(=S)SSC(=S)N(CC)CC [Disulfiram, bis(diethylthiocarbamoyl)disulfide]		time until full effects occur after ingestion [2]: 12 h; time effective following administration of the last dose ([2]; after last dose): approximately one to two; concentration of acetaldehyde compared with same amount of alcohol without disulfiram [4]: 5 to 10 times higher
Clc1ccc2c(c1)C(c1ccccc1)=NCc1nncn1-2 [Estazolam]	10 to 24	
CC1=CC(=O)N2CC(=O)N(C)c3ccc(Cl)cc3C2(c2ccccc2)O1 (stereo not shown) [Ketazolam]	2	
CN1CCN(/C=C2\N=C3CN=C(c4ccccc4Cl)c4cc([N+](=O)[O-])ccc4N3C2=O)CC1 [Loprazolam]	6 to 12	
O=C1Nc2ccc(Cl)cc2C(c2ccccc2Cl)=NC1O (stereo not shown) [Lorazepam]	10 to 20	
CN1C(=O)C(O)N=C(c2ccccc2Cl)c2cc(Cl)ccc21 (stereo not shown) [Lormetazepam]	10 to 12	
CN1CCN=C(c2ccccc2)c2cc(Cl)ccc21 [Medazepam]	36 to 200	
Cc1ncc2n1-c1ccc(Cl)cc1C(c1ccccc1F)=NC2 [Midazolam]		Elimination Half-Life (h) (parent drug): 3 hours (1.8-6
O=C1CN=C(c2ccccc2)c2cc([N+](=O)[O-])ccc2N1 [Nitrazepam]	15 to 38	
Fc1ccccc1C1=NCC(=S)N(CC(F)(F)F)c2ccc(Cl)cc21 [Quazepam]	25 to 100	
CN1C(=O)CN=C(C2=CCCCC2)c2cc(Cl)ccc21 [Tetrazepam]	3 to 26	
Cc1nnc2n1-c1ccc(Cl)cc1C(c1ccccc1Cl)=NC2 [Triazolam]	2	
